# Marks after values point to notes of the source that are not given here.
# How the values were obtained:
# [1] = tested on: absence seizures; experiment: Open-label clinical study: absence seizure frequency from patient seizure diaries; type: in vivo, human
# Source text: Seizure frequency is documented via seizure diaries and side effects and safety are closely monitored. This study informs the feasibility and utility of conducting a larger clinical trial.
# Objectives: The primary objective is to assess the efficacy, safety and tolerability of flunarizine compared to a baseline period on absence seizures in patients with treatment refractory generalized epilepsy taking a minimum of one anti-seizure medication (ASM).
# This is an open-label, single-centre study to evaluate the clinical efficacy, safety and tolerability of flunarizine administered as adjunctive treatment in participants diagnosed with treatment resistant absence epilepsy. The study includes 20 participants.
# Inclusion Criteria: Participants eligible for this study meet all of the following criteria: • 1. Participant is 4 to 18 years of age • 2. Participant has treatment resistant absence seizures. Treatment resistant absence seizures are defined as failure to respond to […] appropriate anti-seizure medications (ASMs). […] Participant must currently be taking a minimum of one ASM • 4. Normal development (may have specific learning disabilities and/or ADHD/ADD) • 5. EEG confirmation of absence seizures and EEG within 2 months of screening visit • 6. Absence seizures reported at least 10 times per week • 7. Participants must have no changes in baseline ASMs for 1 month prior to screening period • 8. Participant or caregiver can maintain a seizure diary • 9. Participant is able to swallow capsules • 10. Written informed consent must be provided. Legal guardians of the participants must be able to understand and provide written consent on behalf of the participant, since study participants may be too young to provide informed consent. For participants 7-18 years of age, assent is required along with written informed consent of the caregiver. • 11. The participant is willing and able to attend all study visits • 12. Participant has the ability to speak and read in English • 13. Females of child bearing potential who are sexually active must be willing to use contraceptive methods for the duration of the study and 6 months post last dose of study drug. • 14. Males who are sexually active with females of child bearing potential must be willing to use contraception for the duration of the study and 3 months post last dose of study drug.
# The initial dose of flunarizine at Visit 2 is 5 mg/day taken at night. The dose is taken orally as one 5 mg capsule. In order to optimize response to treatment, dose escalation, at the discretion of the investigator, is performed at Visit 3. If the 5 mg/day dose is tolerated by any given participant, the dose is escalated to 10 mg/day taken as two 5 mg capsules. […] The investigator uses discretion to maintain or adjust the dose level based on the study participant's tolerability and clinical response, alongside other medical considerations. If deemed necessary by the investigator, the 10 mg dose is be split into morning and evening doses to reduce minor side effects.
# At the screening visit, the seizure history is assessed using detailed parental interviews and chart review. The investigator takes the participant's medical history (including date of seizure onset date of epilepsy diagnosis). The participant's vital signs (temperature, blood pressure and heart rate), height and weight are recorded.
# [2] = Open-label clinical study: safety, tolerability and questionnaires
# [3] = tested on: absence seizures; experiment: Open-label clinical study: number of absence seizures during EEG; type: in vivo, human; set-up: reduction of absence seizures on EEG: concentration or dose not given beside the values
# Source text: The secondary objectives are to evaluate EEG changes in patients with absence epilepsy; to evaluate changes in quality of life for patients; and to evaluate global impression change and clinical impression of change. The secondary outcome measures include median percent change in the number of absence seizures on EEG, and bursts of spike/wave lasting 2 or more seconds in patients treated with flunarizine compared with the baseline period; Clinical and Patient Global Impression of Change scores during the flunarizine treatment period; median percent change in weekly absence seizure frequency from baseline compared to end of study period; and median percent change in weekly absence seizure frequency from flunarizine treatment period.
compound,measurement,setting,value
"Fc1ccc(C(c2ccc(F)cc2)N2CCN(C/C=C/c3ccccc3)CC2)cc1 [Flunarizine, 1-[bis(4-fluorophenyl)methyl]-4-cinnamyl-piperazine]",reduction in diary recorded seizures,[1]; 2 of the 3 CAE patients,> 80%
same,Seizure Frequency at visit 5,"[1]; Patient 1, Jeavons, 10 mg daily, current ASMs VPA, CLON, baseline 409 per month",608
same,% Reduction in Seizures,"[1]; Patient 1, Jeavons, 10 mg daily, printed as Increase",~50%
same,% Reduction in Seizures,"[1]; Patient 3, CAE, 10 mg daily",85%
same,Seizure Frequency at visit 5,"[1]; Patient 3, CAE, 10 mg daily, current ASMs LTG, ESM, ketogenic diet, baseline 41 per month",6
same,% Reduction in Seizures,"[1]; Patient 4, CAE, 10 mg daily",57%
same,Seizure Frequency at visit 5,"[1]; Patient 4, CAE, 10 mg daily, current ASM LTG, baseline 79 per month",34
same,% Reduction in Seizures,"[1]; Patient 5, CAE, 5 mg daily",83%
same,Seizure Frequency at visit 5,"[1]; Patient 5, CAE, 5 mg daily, current ASM VPA, baseline 54 per month",9
same,reduction in diary recorded seizures,[1]; all 3 CAE patients,> 50%
same,change in seizures,[1]; one of the two patients with Jeavons Syndrome,increased seizures
same,study termination,[1]; the other patient with Jeavons Syndrome,terminated within one week due to increase in seizures
same,response to flunarizine,[1]; the two patients with Jeavons Syndrome,did not respond
same,Depressive symptoms and somnolence,"[2]; human, in vivo",not observed in any patient
same,tolerability,"[2]; patients 4 to 18 years, 5 or 10 mg/day oral",well tolerated
same,side effect,[2]; resulting in medication discontinuation,weight gain as the only side effect in one patient
same,absence seizures on EEG,[3]; 2 of the three CAE subjects,resolution of absence seizures
same,% Reduction in Seizures (EEG),[3]; Patient 1 (Jeavons),11%
same,"Number of Absence Seizures during EEG, Visit 5","[3]; Patient 1 (Jeavons), baseline 9",8
same,% Reduction in Seizures (EEG),[3]; Patient 3 (CAE),94%
same,"Number of Absence Seizures during EEG, Visit 5","[3]; Patient 3 (CAE), baseline 16",1
same,% Reduction in Seizures (EEG),[3]; Patient 4 (CAE),100%
same,"Number of Absence Seizures during EEG, Visit 5","[3]; Patient 4 (CAE), baseline 7",0
same,% Reduction in Seizures (EEG),[3]; Patient 5 (CAE),100%
same,"Number of Absence Seizures during EEG, Visit 5","[3]; Patient 5 (CAE), baseline 5",0
same,% Reduction in Seizures (EEG),"[3]; Patient 6 (JAE), 10 mg",50 to 100%***
same,"Number of Absence Seizures during EEG, Visit 5","[3]; Patient 6 (JAE), 10 mg, baseline 6",3
same,reduction of absence seizures on EEG,[3]; one of the three CAE subjects,94%
same,"reduction in seizures, EEG data",[3]; single JAE subject,50 to 100%

# Reference: US20220193070A1, “METHODS FOR TREATING ABSENCE SEIZURES” (XENON PHARMACEUTICALS INC., priority 2020, published 2022)
